Test results as given in patent US20250230193A1, “CYCLIC COMPOUND HAVING SELECTIVE KRAS INHIBITORY EFFECT ON HRAS AND NRAS” (CHUGAI SEIYAKU KABUSHIKI KAISHA, priority 2022, published 2025).
Where a SMILES comes first, the peptide text is derived from it. Bridges are numbered along the chain shown (N, C = ends). [ ]: non-standard residue; d: D form. The star is where a group is joined. hPhe(3,5-F2-4-CF3) = N[C@@H](CCc1cc(F)c(C(F)(F)F)c(F)c1)C(=O)O; hPhe(3-Cl-4-CF3) = N[C@@H](CCc1ccc(C(F)(F)F)c(Cl)c1)C(=O)O; NPrPhe(4-CF3) = CCCN[C@@H](Cc1ccc(C(F)(F)F)cc1)C(=O)O; NEtPhe(4-CF3) = CCN[C@@H](Cc1ccc(C(F)(F)F)cc1)C(=O)O; NMeGly(cPent) = CN[C@H](C(=O)O)C1CCCC1; NMeD = CN[C@@H](CC(=O)O)C(=O)O; NMeL = CN[C@@H](CC(C)C)C(=O)O; αMeS = C[C@](N)(CO)C(=O)O; Morpholide = C1CN(*)CCO1; NMeA = CN[C@@H](C)C(=O)O; Pyrrolidide = C1CCN(*)C1; Ac5c = NC1(C(=O)O)CCCC1; Aze = O=C(O)[C@@H]1CCN1; Ac3c = NC1(C(=O)O)CC1; NEtG = CCNCC(=O)O; Sar = CNCC(=O)O; Allyl = C=CC*

Tests used:
[1] = biological target: GDP-bound HRAS wild-type protein (Homo sapiens, UniProt P01112); assay: Binding to HRAS by surface plasmon resonance (SPR), Single Cycle Kinetics
GDP-bound HRAS wild-type protein, sequence (P01112 whole entry): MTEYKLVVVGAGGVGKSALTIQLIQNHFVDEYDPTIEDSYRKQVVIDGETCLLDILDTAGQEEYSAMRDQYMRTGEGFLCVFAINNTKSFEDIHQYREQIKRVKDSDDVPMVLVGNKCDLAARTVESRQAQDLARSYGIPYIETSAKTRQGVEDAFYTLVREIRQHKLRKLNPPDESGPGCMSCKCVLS

[2] = biological target: GDP-bound NRAS wild-type protein (Homo sapiens, UniProt P01111); assay: Binding to NRAS by surface plasmon resonance (SPR), Single Cycle Kinetics
GDP-bound NRAS wild-type protein, sequence (P01111 whole entry): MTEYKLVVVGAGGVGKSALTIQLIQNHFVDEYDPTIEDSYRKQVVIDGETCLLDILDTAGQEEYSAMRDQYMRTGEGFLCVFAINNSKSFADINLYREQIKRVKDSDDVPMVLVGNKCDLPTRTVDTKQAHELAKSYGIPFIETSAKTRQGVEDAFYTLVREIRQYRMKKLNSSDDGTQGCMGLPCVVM

[3] = SPR, GDP-bound wild-type proteins

With `C#CC[C@H]1C(=O)N[C@@H]([C@@H](C)CC)C(=O)N(C)CC(=O)N(C)[C@H]2C/C=C\CCN(C2=O)[C@@H](Cc2ccc(C(F)(F)F)cc2)C(=O)N(C)CC(=O)N[C@@H](CCc2ccc(C(F)(F)F)c(OC)c2)C(=O)N2C[C@H](OCC)C[C@H]2C(=O)NC2(CC(C)(C)C2)C(=O)N(C)[C@@H](C2CCCC2)C(=O)N(C)[C@H](C(=O)N(C)CC)CC(=O)N1C` [PP2051] the “HRAS/KRAS (ratio of KD value with respect to HRAS to KD value with respect to KRAS)” value ([1]; SPR, GDP-bound HRAS wild-type vs GDP-bound KRAS wild-type) was “A (a compound having 10 or more and less than 20 is denoted as A)” and the “NRAS/KRAS (ratio of KD value with respect to NRAS to KD value with respect to KRAS)” value ([2]; SPR, GDP-bound NRAS wild-type vs GDP-bound KRAS wild-type) was “A (a compound having 10 or more and less than 20 is denoted as A)”.
For `CCO[C@@H]1C[C@H]2C(=O)NC3(CC(C)(C)C3)C(=O)N(C)[C@@H](C3CCCC3)C(=O)N(C)[C@H](C(=O)N3CCCCC3)CC(=O)N(C)[C@@H](COC)C(=O)N[C@@H]([C@@H](C)CC)C(=O)N(C3CC3)CC(=O)N(C)[C@H]3C/C=C\CCN(C3=O)[C@@H](Cc3ccc(C(F)(F)F)cc3)C(=O)N(C)CC(=O)N[C@@H](CCc3cc(F)c(C(F)(F)F)c(F)c3)C(=O)N2C1` [PP2666], the “HRAS/KRAS (ratio of KD value with respect to GDP-bound HRAS wild-type protein to KD value with respect to KRAS)” value ([1]; class symbols) was “AA (a compound having 20 or more is denoted as AA)” and the “NRAS/KRAS (ratio of KD value with respect to GDP-bound NRAS wild-type protein to KD value with respect to KRAS)” value ([2]; class symbols) was “AA (a compound having 20 or more is denoted as AA)”.
`C=CCOC[C@]1(C)NC(=O)[C@@H]2CCCN2C(=O)[C@H](CCc2cc(F)c(C(F)(F)F)c(F)c2)NC(=O)CN(C)C(=O)[C@H](Cc2ccc(C(F)(F)F)cc2)N(CCC)C(=O)CN(C)C(=O)CN(C)C(=O)[C@H]([C@@H](C)CC)NC(=O)[C@H](CC(C)C)N(C)C(=O)C[C@@H](C(=O)N(C)C)N(C)C(=O)[C@H](C2CCCC2)N(C)C1=O` [PP0742] ([NMeL]I[Sar][Sar][NPrPhe(4-CF3)][Sar][hPhe(3,5-F2-4-CF3)]P[αMeS](Allyl)[NMeGly(cPent)][NMeD]-NMe2; lactam N-11) was tested, and the “HRAS/KRAS (ratio of KD value with respect to GDP-bound HRAS wild-type protein to KD value with respect to KRAS)” value ([1]; SPR) was “B (a compound having 3 or more and less than 10 is denoted as B)” and the “NRAS/KRAS (ratio of KD value with respect to GDP-bound NRAS wild-type protein to KD value with respect to KRAS)” value ([2]; SPR) was “B (a compound having 3 or more and less than 10 is denoted as B)”.
`CCCN1C(=O)CN(C)C(=O)CN(CC)C(=O)[C@H]([C@@H](C)CC)NC(=O)[C@H](CC(C)C)N(C)C(=O)C[C@@H](C(=O)N(C)C)NC(=O)[C@H](C2CCCC2)N(C)C(=O)C2(CCCC2)NC(=O)[C@@H]2CCCN2C(=O)[C@H](CCc2ccc(C(F)(F)F)c(Cl)c2)NC(=O)CN(C)C(=O)[C@@H]1Cc1ccc(C(F)(F)F)cc1` [PP0367] ([NMeL]I[NEtG][Sar][NPrPhe(4-CF3)][Sar][hPhe(3-Cl-4-CF3)]P[Ac5c][NMeGly(cPent)]D-NMe2; lactam N-11) was tested, and the “HRAS/KRAS (ratio of KD for GDP-bound HRAS wild-type to KD for KRAS)” value ([1]; SPR) was “B (a compound having 3 or more and less than 10 is denoted as B)” and the “NRAS/KRAS (ratio of KD for GDP-bound NRAS wild-type to KD for KRAS)” value ([2]; SPR) was “B (a compound having 3 or more and less than 10 is denoted as B)”.
For `CCCN1C(=O)CN(C)C(=O)CN(C)C(=O)[C@H]([C@@H](C)CC)NC(=O)[C@H](CC(C)C)N(C)C(=O)C[C@@H](C(=O)N2CCCC2)N(C)C(=O)[C@H](C2CCCC2)N(C)C(=O)C2(CCCC2)NC(=O)[C@@H]2CCCN2C(=O)[C@H](CCc2ccc(C(F)(F)F)c(Cl)c2)NC(=O)CN(C)C(=O)[C@@H]1Cc1ccc(C(F)(F)F)cc1` [PP0170] ([NMeL]I[Sar][Sar][NPrPhe(4-CF3)][Sar][hPhe(3-Cl-4-CF3)]P[Ac5c][NMeGly(cPent)][NMeD]-Pyrrolidide; lactam N-11), the “HRAS/KRAS (ratio of KD for GDP-bound HRAS wild-type to KD for KRAS)” value ([1]; SPR) was “B (a compound having 3 or more and less than 10 is denoted as B)” and the “NRAS/KRAS (ratio of KD for GDP-bound NRAS wild-type to KD for KRAS)” value ([2]; SPR) was “B (a compound having 3 or more and less than 10 is denoted as B)”.
With `CCO[C@@H]1C[C@H]2C(=O)NC3(CCC3)C(=O)N(C)[C@@H](C(CC)CC)C(=O)N(C)[C@H](C(=O)N3CCCCC3)CC(=O)N(C)[C@H]3CCC/C=C/c4ccc(cc4)C[C@@H](C(=O)N(C)CC(=O)N[C@@H](CCc4ccc(Cl)c(Cl)c4)C(=O)N2C1)N1CC/C=C\C[C@@H](C1=O)N(C)C(=O)CN(C1CC1)C(=O)[C@H]([C@@H](C)CC)NC3=O` [PP3039] the “HRAS/KRAS (ratio of KD value with respect to GDP-bound HRAS wild-type protein to KD value with respect to KRAS)” value [1, 3] was “A (a compound having 10 or more and less than 20 is denoted as A)” and the “NRAS/KRAS (ratio of KD value with respect to GDP-bound NRAS wild-type protein to KD value with respect to KRAS)” value [2, 3] was “AA (a compound having 20 or more is denoted as AA)”.
In the case of `CCO[C@@H]1C[C@H]2C(=O)NC3(CCC3)C(=O)N(C)[C@@H](C3CCCC3)C(=O)N(C)[C@H](C(=O)N3CCCCC3)CC(=O)N(C)[C@H]3CCCCCCc4ccc(cc4)C[C@@H](C(=O)N(C)CC(=O)N[C@@H](CCc4ccc(C(F)(F)F)c(OC)c4)C(=O)N2C1)N1CC/C=C\C[C@@H](C1=O)N(C)C(=O)CN(C)C(=O)[C@H]([C@@H](C)CC)NC3=O` [PP3033, (1S,7S,11R,13S,19S,22S,26S,29S,35S,37Z)-19-cyclopentyl-11-ethoxy-7-[2-[3-methoxy-4-(trifluoromethyl)phenyl]ethyl]-3,18,21,25,31,34-hexamethyl-29-[(1S)-1-methylpropyl]-22-(piperidine-1-carbonyl)spiro[3,6,9,15,18,21,25,28,31,34,41-undecazapentacyclo[24.15.11.2^43,46.1^35,41.0^9,13]pentapentaconta-37,43(54),44,46(53)-tetraene-16,1′-cyclobutane]-2,5,8,14,17,20,24,27,30,33,55-undecone], the “HRAS/KRAS (ratio of KD value with respect to GDP-bound HRAS wild-type protein to KD value with respect to KRAS)” value [1, 3] is reported as “B (a compound having 3 or more and less than 10 is denoted as B)” and the “NRAS/KRAS (ratio of KD value with respect to GDP-bound NRAS wild-type protein to KD value with respect to KRAS)” value [2, 3] is reported as “A (a compound having 10 or more and less than 20 is denoted as A)”.
In the case of `CC[C@H](C)[C@@H]1NC(=O)[C@H](CC(C)C)N(C)C(=O)C[C@@H](C(=O)N2CCOCC2)N(C)C(=O)[C@H](C2CCCC2)N(C)C(=O)C2(CC2)NC(=O)[C@@H]2CCCN2C(=O)[C@H](CCc2ccc(C(F)(F)F)c(Cl)c2)NC(=O)CN(C)C(=O)[C@H](Cc2ccc(C(F)(F)F)cc2)N(CC)C(=O)[C@@H]2CCN2C(=O)[C@H](C)N(C)C1=O` [PP0220] ([NMeL]I[NMeA][Aze][NEtPhe(4-CF3)][Sar][hPhe(3-Cl-4-CF3)]P[Ac3c][NMeGly(cPent)][NMeD]-Morpholide; lactam N-11), the “HRAS/KRAS (ratio of KD for GDP-bound HRAS wild-type to KD for KRAS)” value ([1]; SPR) is reported as “C (A compound having a KD ratio of 0.1 or more and less than 3 is denoted as C)” and the “NRAS/KRAS (ratio of KD for GDP-bound NRAS wild-type to KD for KRAS)” value ([2]; SPR) is reported as “C (A compound having a KD ratio of 0.1 or more and less than 3 is denoted as C)”.
For `CCCN(C)C(=O)[C@@H]1CC(=O)N(C)[C@@H](COC)C(=O)N[C@@H]([C@@H](C)CC)C(=O)N(C)CC(=O)N(C)[C@H]2C/C=C\CCN(C2=O)[C@@H](Cc2ccc(C(F)(F)F)cc2)C(=O)N(C)CC(=O)N[C@@H](CCc2cc(F)c(C(F)(F)F)c(F)c2)C(=O)N2CCC[C@H]2C(=O)NC2(CC(C)(C)C2)C(=O)N(C)[C@@H](C2CCCC2)C(=O)N1C` [PP1729], the “HRAS/KRAS (ratio of KD value for HRAS to KD value for KRAS)” value ([1]; KD ratio, GDP-bound HRAS wild-type vs GDP-bound KRAS wild-type, SPR) was “A (a compound having 10 or more and less than 20 is denoted as A)” and the “NRAS/KRAS (ratio of KD value for NRAS to KD value for KRAS)” value ([2]; KD ratio, GDP-bound NRAS wild-type vs GDP-bound KRAS wild-type, SPR) was “AA (a compound having 20 or more is denoted as AA)”.
